These results are taken from article PMC6274355, “Synthesis and Anti-HIV-1 Activity Evaluation for Novel 3a,6a-Dihydro-1H-pyrrolo[3,4-c]pyrazole-4,6-dione Derivatives” (Molecules, 2016).

Where two headings read alike, the source gives them in different places.

The nature of data set [1]: Cytotoxicity assay (MTT). The conditions noted are these: human; C8166 cells, MTT, 72 h; means of two separate experiments; read-out: CC50 (50% cytotoxic concentration). The class given is cell-based. As to the method: The cytotoxicty assay was performed by 3-(4,5-dimethylthiazol-2-yl)-2,5-diphenyl tetrazoliumbromide (MTT) method. Briefly, 100 μL 4 × 10^4 C8166 cells were seeded each well with 100 μL of different concentrations of compounds in a 96-well plate. The plate was incubated 72 h at 37 °C, 5% CO2 incubator. MTT (20 μL, 5 mg/mL) was added to each well and the plate was incubated at 37 °C for 4 h. Supernatant (100 μL) was discarded and 20% SDS-50% DMF (100 μL) was added. The plates were read at 570/630 nm by a Bio-Tek Elx 800 reader (Bio-Tek Instruments, Inc., Winooski, VT, USA). The 50% cytotoxic concentration (CC50) was calculated.

The subject of data set [2] is HIV-1IIIB. The experiment in a line: Syncytia inhibition assay (HIV-1IIIB infected C8166 cells). The conditions noted are these: for TI (in vitro therapeutic index, CC50 value/EC50 value): CC50 in C8166 cells / EC50 syncytia inhibition; for EC50: HIV-1IIIB infected C8166 cells, 72 h, means of two separate experiments, read-out: EC50 (50% effective concentration, reduces syncytia formation by 50%). The class given is cell-based. As to the method: Target compounds 6–16 were evaluated for their inhibitory activity against HIV-1 replication in acutely infected C8166 cells in vitro according to the previously described method, and AZT was used as a positive control. The assay results of the target compounds are presented in Table 1 and Table 2, expressed as CC50, EC50 and therapeutic index (TI).
The syncytia inhibition assay was applied by counting syncytia which were formed by HIV-1IIIB infected C8166 cells. Briefly, HIV-1IIIB supernatant and C8166 cells were seeded in a 96-well plate with different concentration of compounds. The plate was incubated in a 37 °C, 5% CO2 incubator for 72 h. Syncytia were counting under an inverted microscope and 50% effective concentration (EC50) was calculated. Therapeutic index (TI) was calculated by the ratio of CC50/EC50.

Where [3] appears, read: Human immunodeficiency virus 1, C8166, 72 h.

Turning to `O=C1C2C(c3cccc([N+](=O)[O-])c3O)=NN(c3ccc(F)cc3)C2C(=O)N1CCc1ccc(F)cc1` (centres unmarked) [9e, 1-(4-Fluorophenyl)-5-[2-(4-fluorophenyl)ethyl]-3-(2-hydroxy-3-nitrophenyl)-3a,6a-dihydro-1H-pyrrolo[3,4-c]pyrazole-4,6-dione], in data set [1], the CC50 at 72 h stood at 49.5 µM. Further, the “TI (in vitro therapeutic index, CC50 value/EC50 value)” value in data set [2] amounted to 6.56. For the same compound, in data set [2] (setting [3]), the EC50 was found to be 7.55 µM.

For the compound `COc1cccc(C2=NN(c3ccc(S(N)(=O)=O)cc3)C3C(=O)N(CCc4ccc(F)cc4)C(=O)C23)c1O` (centres unmarked) [15g, 4-[5-[2-(4-Fluorophenyl)ethyl]-3-(2-hydroxy-3-methoxyphenyl)-4,6-dioxo-4,5,6,6a-tetrahydro-3aH-pyrrolo[3,4-c]pyrazol-1-yl]-benzenesulfonamide], the CC50 at 72 h in data set [1] was found to be 46 µM. For the same compound, in data set [2], the “TI (in vitro therapeutic index, CC50 value/EC50 value)” value turned out to be 1.51. In addition, in data set [2] (setting [3]), the EC50 worked out at 30.4 µM.

Take `O=C1C2C(c3ccc(O)cc3O)=NN(c3ccc(F)cc3)C2C(=O)N1CCc1ccc(F)cc1` (centres unmarked) [9a, 3-(2,4-Dihydroxyphenyl)-1-(4-fluorophenyl)-5-[2-(4-fluorophenyl)ethyl]-3a,6a-dihydro-1H-pyrrolo[3,4-c]pyrazole-4,6-dione]: the CC50 at 72 h in data set [1] is 173 µM. Besides, the “TI (in vitro therapeutic index, CC50 value/EC50 value)” value in data set [2] is given as 4.91. Moreover, the EC50 in data set [2] (setting [3]) was found to be 35.3 µM.

Take `COc1cccc(C2=NN(c3ccc(Cl)cc3)C3C(=O)N(CCc4ccc(F)cc4)C(=O)C23)c1O` (centres unmarked) [15c, 1-(4-Chlorophenyl)-5-[2-(4-fluorophenyl)ethyl]-3-(2-hydroxy-3-methoxyphenyl)-3a,6a-dihydro-1H-pyrrolo[3,4-c]pyrazole-4,6-dione]: in data set [1], the CC50 at 72 h stood at 166 µM. The “TI (in vitro therapeutic index, CC50 value/EC50 value)” value in data set [2] came to 6.52. The EC50 in data set [2] (setting [3]) was found to be 25.5 µM.

As to `COc1ccc(N2N=C(c3cccc(OC)c3O)C3C(=O)N(CCc4ccc(F)cc4)C(=O)C32)cc1` (centres unmarked) [15j, 5-[2-(4-Fluorophenyl)-ethyl]-3-(2-hydroxy-3-methoxyphenyl)-1-(4-methoxyphenyl)-3a,6a-dihydro-1H-pyrrolo[3,4-c]pyrazole-4,6-dione], in data set [1], the CC50 at 72 h is > 409 µM. The “TI (in vitro therapeutic index, CC50 value/EC50 value)” value in data set [2] is recorded as >19.34. For the same compound, the EC50 in data set [2] (setting [3]) came out at 21.1 µM.

Turning to `O=C1C2C(c3ccccc3O)=NN(c3ccc(F)cc3)C2C(=O)N1CCc1ccc(F)cc1` (centres unmarked) [compound 8, 1-(4-Fluorophenyl)-5-[2-(4-fluorophenyl)ethyl]-3-(2-hydroxyphenyl)-3a,6a-dihydro-1H-pyrrolo[3,4-c]pyrazole-4,6-dione], the CC50 at 72 h in data set [1] was > 447 µM. The “TI (in vitro therapeutic index, CC50 value/EC50 value)” value in data set [2] is on record as >44.25. The EC50 in data set [2] (setting [3]) worked out at 10.1 µM.

`O=C1C2C(c3ccccc3)=NN(c3ccc(F)cc3)C2C(=O)N1CCc1ccc(F)cc1` (centres unmarked) [7b, 1-(4-Fluorophenyl)-5-[2-(4-fluorophenyl)ethyl]-3-phenyl-3a,6a-dihydro-1H-pyrrolo[3,4-c]pyrazole-4,6-dione]: in data set [1], the CC50 at 72 h stood at 148 µM. Further, in data set [2], the “TI (in vitro therapeutic index, CC50 value/EC50 value)” value was determined as 16.03. The EC50 in data set [2] (setting [3]) turned out to be 9.21 µM.

In the case of `COc1cccc(C2=NN(c3ccccc3F)C3C(=O)N(CCc4ccc(F)cc4)C(=O)C23)c1O` (centres unmarked) [15b, 1-(2-Fluorophenyl)-5-[2-(4-fluorophenyl)ethyl]-3-(2-hydroxy-3-methoxyphenyl)-3a,6a-dihydro-1H-pyrrolo[3,4-c]pyrazole-4,6-dione], the CC50 at 72 h in data set [1] was > 419 µM. Besides, the “TI (in vitro therapeutic index, CC50 value/EC50 value)” value in data set [2] is on record as >3.71. For the same compound, the EC50 in data set [2] (setting [3]) is 113 µM.

Consider `COc1ccc(CCN2C(=O)C3C(c4cccc(OC)c4O)=NN(c4ccc(F)cc4)C3C2=O)cc1` (centres unmarked) [16e, 1-(4-Fluorophenyl)-3-(2-hydroxy-3-methoxyphenyl)-5-[2-(4-methoxyphenyl)ethyl]-3a,6a-dihydro-1H-pyrrolo[3,4-c]pyrazole-4,6-dione], for which the CC50 at 72 h in data set [1] is 219 µM. The “TI (in vitro therapeutic index, CC50 value/EC50 value)” value in data set [2] stood at 2.52. Besides, the EC50 in data set [2] (setting [3]) was found to be 87.2 µM.

For `COc1cc([N+](=O)[O-])cc(C2=NN(c3ccc(F)cc3)C3C(=O)N(CCc4ccc(F)cc4)C(=O)C23)c1O` (centres unmarked) [compound 11, 1-(4-Fluorophenyl)-5-[2-(4-fluorophenyl)ethyl]-3-(2-hydroxy-3-methoxy-5-nitrophenyl)-3a,6a-dihydro-1H-pyrrolo[3,4-c]pyrazole-4,6-dione], in data set [1], the CC50 at 72 h came to 90.3 µM. Also, the “TI (in vitro therapeutic index, CC50 value/EC50 value)” value in data set [2] was 2.15. Further, the EC50 in data set [2] (setting [3]) is 41.9 µM.

For `COc1cccc(C2=NN(c3ccc(F)cc3)C3C(=O)N(CCc4ccc(Cl)cc4)C(=O)C23)c1O` (centres unmarked) [16c, 5-[2-(4-Chlorophenyl)-ethyl]-1-(4-fluorophenyl)-3-(2-hydroxy-3-methoxyphenyl)-3a,6a-dihydro-1H-pyrrolo[3,4-c]pyrazole-4,6-dione], the CC50 at 72 h in data set [1] is 70.1 µM. For the same compound, the “TI (in vitro therapeutic index, CC50 value/EC50 value)” value in data set [2] came to 6.73. Also, the EC50 in data set [2] (setting [3]) amounted to 10.4 µM.

Regarding `O=C1C2C(c3c(O)ccc4ccccc34)=NN(c3ccc(F)cc3)C2C(=O)N1CCc1ccc(F)cc1` (centres unmarked) [compound 13, 1-(4-Fluorophenyl)-5-[2-(4-fluorophenyl)ethyl]-3-(2-hydroxynaphthalen-1-yl)-3a,6a-dihydro-1H-pyrrolo[3,4-c]pyrazole-4,6-dione], the CC50 at 72 h in data set [1] was found to be 9.03 µM. Moreover, in data set [2], the “TI (in vitro therapeutic index, CC50 value/EC50 value)” value stood at 2.00. For the same compound, in data set [2] (setting [3]), the EC50 was found to be 4.5 µM.

On to `Cc1cccc(C2=NN(c3ccc(F)cc3)C3C(=O)N(CCc4ccc(F)cc4)C(=O)C23)c1O` (centres unmarked) [9f, 1-(4-Fluoro-phenyl)-5-[2-(4-fluoro-phenyl)-ethyl]-3-(2-hydroxy-3-methyl-phenyl)-3a,6a-dihydro-1H-pyrrolo[3,4-c]pyrazole-4,6-dione], for which, in data set [1], the CC50 at 72 h was determined as 151 µM. Further, the “TI (in vitro therapeutic index, CC50 value/EC50 value)” value in data set [2] is listed as 30.73. For the same compound, the EC50 in data set [2] (setting [3]) came to 4.9 µM.

For `COc1cccc(C2=NN(c3ccc(F)cc3)C3C(=O)N(CCc4ccc(F)cc4)C(=O)C23)c1OC` (centres unmarked) [12a, 3-(2,3-Dimethoxyphenyl)-1-(4-fluorophenyl)-5-[2-(4-fluorophenyl)ethyl]-3a,6a-dihydro-1H-pyrrolo[3,4-c]pyrazole-4,6-dione], the CC50 at 72 h in data set [1] was > 407 µM. The “TI (in vitro therapeutic index, CC50 value/EC50 value)” value in data set [2] is given as >36.56. In addition, the EC50 in data set [2] (setting [3]) is 11.1 µM.

`COc1cccc(C2=NN(c3ccc(C(F)(F)F)cc3)C3C(=O)N(CCc4ccc(F)cc4)C(=O)C23)c1O` (centres unmarked) [15e, 5-[2-(4-Fluorophenyl)-ethyl]-3-(2-hydroxy-3-methoxyphenyl)-1-(4-trifluoromethylphenyl)-3a,6a-dihydro-1H-pyrrolo[3,4-c]pyrazole-4,6-dione]: the CC50 at 72 h in data set [1] was > 379 µM. Besides, in data set [2], the “TI (in vitro therapeutic index, CC50 value/EC50 value)” value is recorded as >11.81. Further, in data set [2] (setting [3]), the EC50 was determined as 32.1 µM.

On to `COc1cccc(C2=NN(c3ccc(C)cc3)C3C(=O)N(CCc4ccc(F)cc4)C(=O)C23)c1O` (centres unmarked) [15i, 5-[2-(4-Fluorophenyl)ethyl]-3-(2-hydroxy-3-methoxyphenyl)-1-(4-methylphenyl)-3a,6a-dihydro-1H-pyrrolo[3,4-c]pyrazole-4,6-dione], for which, in data set [1], the CC50 at 72 h is > 423 µM. Further, in data set [2], the “TI (in vitro therapeutic index, CC50 value/EC50 value)” value is given as >103.09 and the EC50 came to 4.1 µM. In addition, the EC50 in data set [2] (setting [3]) was < 5 µM.

As for `COc1cccc(C2=NN(c3ccc(F)cc3)C3C(=O)N(CCc4ccc(F)cc4)C(=O)C23)c1O` (centres unmarked) [9g, 1-(4-Fluorophenyl)-5-[2-(4-fluorophenyl)ethyl]-3-(2-hydroxy-3-methoxyphenyl)-3a,6a-dihydro-1H-pyrrolo[3,4-c]pyrazole-4,6-dione], the CC50 at 72 h in data set [1] is > 419 µM. Also, in data set [2], the “TI (in vitro therapeutic index, CC50 value/EC50 value)” value is reported as >105.26 and the EC50 came to 3.98 µM. The EC50 in data set [2] (setting [3]) was < 5 µM.

As to `O=C1C2C(c3cccc(F)c3O)=NN(c3ccc(F)cc3)C2C(=O)N1CCc1ccc(F)cc1` (centres unmarked) [9b, 1-(4-Fluorophenyl)-5-[2-(4-fluorophenyl)ethyl]-3-(3-fluoro-2-hydroxyphenyl)-3a,6a-dihydro-1H-pyrrolo[3,4-c]pyrazole-4,6-dione], the CC50 at 72 h in data set [1] turned out to be 141 µM. Moreover, the “TI (in vitro therapeutic index, CC50 value/EC50 value)” value in data set [2] stood at 24.58. For the same compound, in data set [2] (setting [3]), the EC50 worked out at 5.74 µM.

Consider `O=C1C2C(c3cccc(O)c3O)=NN(c3ccc(F)cc3)C2C(=O)N1CCc1ccc(F)cc1` (centres unmarked) [compound 6, 3-(2,3-Dihydroxyphenyl)-1-(4-fluorophenyl)-5-[2-(4-fluorophenyl)ethyl]-3a,6a-dihydro-1H-pyrrolo[3,4-c]pyrazole-4,6-dione], for which the CC50 at 72 h in data set [1] is > 432 µM. The “TI (in vitro therapeutic index, CC50 value/EC50 value)” value in data set [2] was >16.37. Besides, the EC50 in data set [2] (setting [3]) amounted to 26.4 µM.

As to `COc1cccc(C2=NN(c3ccc(F)cc3)C3C(=O)N(CCc4cccc(F)c4)C(=O)C23)c1O` (centres unmarked) [16b, 1-(4-Fluorophenyl)-5-[2-(3-fluorophenyl)ethyl]-3-(2-hydroxy-3-methoxyphenyl)-3a,6a-dihydro-1H-pyrrolo[3,4-c]pyrazole-4,6-dione], the CC50 at 72 h in data set [1] was found to be 143 µM. The “TI (in vitro therapeutic index, CC50 value/EC50 value)” value in data set [2] was 11.01. Besides, the EC50 in data set [2] (setting [3]) turned out to be 13 µM.
